Assay results published in patent US10980755B2, “LRH-1 modulators” (THE REGENTS OF THE UNIVERSITY OF CALIFORNIA, priority 2015, dated 2021).
Entries after “also recorded” stand apart in the source; their conditions may differ.

Key:
hLRH-1 = target: T1, hLRH-1 (Homo sapiens, UniProt O00482); experiment: RT-qPCR of hLRH-1 target gene CYP24A1 in HepG2 / HepG2-hLRH-1 cells; assay type: cell-based
T1 construct: expressed in transfected cells; host or cells: TET-On 3G HepG2 cells; Dox-inducible pTRE 3G vector (Clontech)

F342W/I416W hLRH-1 = target: T2, F342W/I416W hLRH-1 (Homo sapiens, UniProt O00482, F342W/I416W); experiment: RT-qPCR of CYP24A1 in HepG2 cells stably expressing the hLRH-1 pocket mutant; assay type: cell-based; settings: 10 μM, 16 h, low levels of hLRH-1; listed as PME8
T2 construct: expressed in transfected cells; host or cells: TET-On 3G HepG2 cells; Dox-inducible pTRE 3G vector (Clontech)
Experimental: Cell lines and Quantitative Real-time Polymerase Chain Reaction (RT-qPCR) Assay. […] Induction of low or high levels of hLRH-1 was achieved by addition of DMSO or 500 ng/ml Dox, respectively.
For RT-qPCR assay, cells (5×10^5) were plated on 24-well plates in 0.5 mL of media. The following day, fresh media was applied with compound or DMSO control. After an overnight treatment or indicated period of time, cells were washed with ice-cold 1×PBS and total RNA was isolated by Trizol (Life Technologies). DNase-treated total RNA was used to generate cDNA using High-Capacity cDNA Reverse Transcription kits (Life Technologies). RT-qPCR was performed with SYBR (Biotool) and data analyzed essentially as described [19].

[1] = target: biotinylated apo hLRH-1 LBD (Homo sapiens, UniProt O00482); experiment: Surface plasmon resonance binding assay; settings: SPR, 25° C., titration from 300 μM, 1:1 binding model; listed as PME8
Experimental: Surface Plasmon Resonance Assays. Data were collected on a BiaCore T100 instrument. The biotin CAPture kit (GE Healthcare Life Science) was used as directed for chip preparation and immobilization of protein. In brief, the CAP chip was first conditioned with 3×1 min injec-tions of the provided regeneration solution (6 M Guanidine HCL, 0.25 M NaOH). CAP reagent was then captured on flow cells 1 and 2 to a final density of ˜2500 response units using capture buffer (25 mM HEPES, pH 7.4, 150 mM NaCl). Avi-tagged LRH-1 was then directly injected exclusively on to flow cell 2 achieving a final density of ˜1000 response units (capture buffer). […] A titration series for each fragment was generated as a 0.6× dilution series starting from 300 μM. All samples were made to match the running buffer used in the experiment as closely as possible (capture buffer+3% DMSO, +0.05% Tween-20, 250 μM TCEP). Data was collected at 25° C. with a flow rate of 30 μL/min. Data processing included referencing to both the reference flow cell as well as a buffer injection. Equilibrium binding constants were determined by nonlinear regression analysis utilizing a simple 1:1 binding model. Steady state values used to generate dose-responses curve correspond to the response units achieved 20 seconds after injection.

TBP = experiment: RT-qPCR of housekeeping gene TBP in HepG2-hLRH-1 cells; assay type: cell-based, human; settings: high hLRH-1 (+Dox), 16 h, SR1848 10 μM
Experimental: FIG. 9. Effects of select compounds targeting hLRH-1 compared to PME8. Agonists and antagonists were tested in HepG2-hLRH-1 cells expressing high levels (+Dox) of hLRH-1; activating compounds were added for 16 h relative to the DMSO control (black bars) at the following concentrations: RJW100 (10 μM), DLPC (20 μM), PME8 (10 μM) (bolded, this study) as well as the two putative antagonist/repressors, SR1848 (10 μM) and Cpd3 (10 μM); relative levels of the hLRH-1 target, CYP24A1 (left set of bars) and the housekeeping gene, TBP (right set of bars) are shown with all values normalized to GAPDH. Error bars represents SEM and P values=****<0.0001.
Finally, to ask how PME8 and PME9 compare to other published compounds, we directly compared the activity of all compounds with respect to the ability to activate or repress CYP24A1 expression in HepG2-hLRH-1 cells. For this experiment, assays were carried out under high levels of hLRH-1 (+Dox) to maximize our ability to see any repressive effects of compounds and the ligand concentrations used were based on published effective doses. […] Of the two published antagonist/repressors, only SR1848 decreased CYP24A1 levels. […]
For RT-qPCR assay, cells (5×10^5) were plated on 24-well plates in 0.5 mL of media. […] RT-qPCR was performed with SYBR (Biotool) and data analyzed essentially as described. […]

T1 sequence (O00482 whole entry): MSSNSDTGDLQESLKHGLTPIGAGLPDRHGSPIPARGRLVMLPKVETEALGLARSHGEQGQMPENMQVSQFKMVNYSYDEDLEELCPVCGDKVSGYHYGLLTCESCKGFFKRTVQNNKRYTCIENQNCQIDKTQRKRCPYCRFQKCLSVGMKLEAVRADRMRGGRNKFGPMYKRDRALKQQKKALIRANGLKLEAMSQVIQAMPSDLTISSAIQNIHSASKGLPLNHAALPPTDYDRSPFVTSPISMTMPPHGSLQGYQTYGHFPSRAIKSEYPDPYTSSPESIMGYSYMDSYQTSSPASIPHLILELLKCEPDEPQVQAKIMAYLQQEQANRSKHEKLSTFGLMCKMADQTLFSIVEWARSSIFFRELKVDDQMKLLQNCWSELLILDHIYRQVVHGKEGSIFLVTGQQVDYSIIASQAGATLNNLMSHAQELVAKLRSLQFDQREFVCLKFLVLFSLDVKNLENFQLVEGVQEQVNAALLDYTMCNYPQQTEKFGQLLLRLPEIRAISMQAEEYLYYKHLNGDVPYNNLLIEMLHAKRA
T2 sequence (O00482 whole entry F342W/I416W): as the sequence (O00482 whole entry) above, with F342W, I416W counted along it
Chain of biotinylated apo hLRH-1 LBD (O00482 300-539 limits assumed): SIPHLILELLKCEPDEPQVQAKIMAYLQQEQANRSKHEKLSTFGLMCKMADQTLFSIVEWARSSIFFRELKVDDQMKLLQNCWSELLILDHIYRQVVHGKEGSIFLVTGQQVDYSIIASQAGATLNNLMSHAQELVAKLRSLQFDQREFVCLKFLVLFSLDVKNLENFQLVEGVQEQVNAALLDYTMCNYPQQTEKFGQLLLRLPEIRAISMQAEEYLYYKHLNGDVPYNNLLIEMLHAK

Question: `CCCNC(=O)c1cc(C(C)(C)C)cc(C(C)(C)C)c1O` [Compound 8, 3,5-di-tert-butyl-2-hydroxy-N-propylbenzamide] was tested. Which “CYP24A1 expression after siRNA-mediated knockdown of hLRH-1 (dependence on hLRH-1)” value (hLRH-1; 10 μM, siLRH-1 vs siControl, HepG2-hLRH-1 cells, low hLRH-1 (−Dox), listed as PME8) did it give?
Answer: precipitous drop in CYP24A1 expression; also recorded: Depends on hLRH-1

Question: And the “treatment time of maximal activity (CYP24A1 levels)” value (hLRH-1; HepG2-hLRH-1 cells)?
Answer: 16 h

Question: What about the “time and dose dependence of CYP24A1 induction” value (hLRH-1; HepG2-hLRH-1 cells, 3-24 h at 10 μM, increasing concentrations for 16 h, −Dox or +Dox, listed as PME8) of the same compound?
Answer: time-dependent (FIG. 7A) and dose-dependent

Question: And the “activity (CYP24A1 transcripts) in cells expressing the pocket mutant versus wild type hLRH-1” value (F342W/I416W hLRH-1)?
Answer: decreased; also recorded: depends on an intact hLRH-1 ligand binding pocket

Question: And the “binding to the hLRH-1 LBD” value [1]?
Answer: direct binding; also recorded: bind directly

Question: With `O=c1cc(N2CCN(c3cccc(Cl)c3)CC2)[nH]c(=O)n1C1CCCCC1` [SR1848, reference compound] as the compound, how does the “CYP24A1 expression, comparison of published compounds” value (hLRH-1; high hLRH-1 (+Dox), 16 h, RJW100 10 μM, DLPC 20 μM, SR1848 10 μM) read?
Answer: decreased

Question: And the “expression of the housekeeping gene TBP” value (TBP)?
Answer: substantial repression
